Reference: US5770563A, “Heparin- and sulfatide binding peptides from the type I repeats of human thrombospondin and conjugates thereof” (The United States of America as represented by the …, priority 1995, dated 1998)
Square brackets hold non-standard residues; d marks the D form. Ends that are not written are not given here. Peptide text beside a SMILES is read from it.

Key:
MDA MB435 tumor = experiment: MDA MB435 orthotopic tumor growth in nude mice; format: in vivo, mouse
Procedure: (§1) Tumor cells were allowed to implant for approximately one to three weeks prior to administering the peptide analog or a polysucrose conjugate. […] The inhibitory effect persisted beyond the treatment period, although the growth of the tumors eventually resumed.
The presented experiment consisted of two groups of animals. The objective was to test a peptide conjugate for effects on breast carcinoma growth. The treated animals were injected with MDA435 cells alone on day one and then injected intravenously with drugs from day 10 through approximately day 30. Tumor growth and frequency of metastasis were determined in both groups.
NIH Nu/Nu mice, approximately eight weeks of age are injected with 10^5 MDA MB435 cells by the mammary fat pad route. Mice were anesthetized with 150-200 μl i.p. of a 1:80 dilution in PBS of a solution containing 25 g. tribromoethanol in 12.5 ml tertiary amyl alcohol. The mammary fat pad was cleaned with ethanol and a 10 mm incision was made directly above the site of injection. Mammary fat pad #4 could be observed beneath the skin after the incision was made. Using a 0.1 ml Hamilton syringe and 27 gauge 1/2" needle, 10 μl of cell suspension, 1×10^5 cells in HBSS, are injected into the fat pad. The incision is closed using 1-2 Autoclips ([…], Clay Adams). Autoclips are removed 7 days post-injection and scarring is minimal.
Six animals were injected for each condition, per experiment. Animals were earpunched after injection for subsequent identification. Beginning at day 10 and continuing every day until approximately day 30, the experimental animals were injected i.v. (tail vein) with 0.1 ml of the FICOLL conjugate. Primary tumor size was determined twice weekly by length×width×height measurement, and the animals are observed daily for general health. When the primary tumor of any animal exceeded 20 mm in any dimension, all of the animals were sacrificed. The presence of metastases was determined by gross autopsy and examination of H & E stained sections of any suspicious organ and step sections of the lungs and draining lymph nodes. The primary tumors were removed, stripped free of other tissues, and weighed. At any time during the experiment, animals suspected of being in distress were sacrificed and examined as above.

AIDS-KS lesion = experiment: Kaposi's sarcoma angiogenic lesion formation in nude mice; format: in vivo; settings: intravenous, nude mouse
Procedure: For determination of In vivo Angiogenesis, 2×10^6 AIDS-KS cells suspended in phosphate buffered saline without calcium and magnesium (PBS w/o), passage 6-8, were transplanted subcutaneously on day 0 of the flanks of male Balb/c nu/nu athymic mice. The animals were injected intravenously with increasing dilutions of TSP peptide-FICOLL conjugates or the equivalent concentrations of FICOLL mixed in PBS w/o as a control from days 1-5. On day 6 the angiogenic lesions were observed, measured, fixed in 10% formalin, and stained with hematoxylin-eosin.

[1] = tested on: bovine corneal endothelial cells; format: cell-based
Procedure: Corneal bovine endothelial cells (BCE cells) were used at passages 2 through 8 (Munjal et al., 1990). BCE cell cultures were maintained in DMEM (low glucose), containing 10% FCS, 4 mM glutamine, 2.5 μg/ml amphotericin B, and 500 U/ml each of penicillin G potassium and streptomycin sulfate (all media components were from Biofluids Inc., Rockville, Md.). BCE cells were grown at 34° in 5% CO2. The media were changed every 2-3 days.
(§2) Endothelial cell proliferation was measured using the CELL TITER 96™ assay (Promega, Madison, Wis.). 5×10^3 cells were plated into each well of a 96-well culture plate in 0.5 or 5% FCS-containing medium together with the indicated concentrations of growth effectors. After 72 h, 15 μl of dye solution was added to each well, and the plates were incubated for an additional 4 h. Solubilization solution was added, and absorbance at 570 nm was determined after 24 h as described by the manufacturer.

[2] = tested on: thrombospondin binding to heparin; experiment: Inhibition of 125I-thrombospondin binding to immobilized heparin-BSA; design: species or system human
Method in brief: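 Solid-phase binding: heparin-BSA (0.2 μg/well) adsorbed 2 h at 37° in Dulbecco's PBS, blocked with tris-BSA. Peptides in 50 mM tris pH 7.8, NaCl, 1 mM CaCl2, 0.025% NaN3, 1% BSA mixed with 125I-thrombospondin (added at 0.2 μg/ml), 3 h at 4°; after saline washes, bound radioactivity counted.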

[3] = tested on: bovine aortic endothelial cells; experiment: Proliferation of bovine aortic endothelial cells; format: cell-based; settings: free peptide, 40 μM
Procedure: as §2
FICOLL conjugates of peptide 353 (SEQ ID NO:28) (GGWSHWSPWSSC), 354 (SEQ ID NO:29) (CGGWSHWSPWSS), 224 364 g (SEQ ID NO:30) and 387 (SEQ ID NO:30) (three syntheses of KRFKQDGGWSHWSPWSSC), or free FICOLL were tested at the indicated concentrations as inhibitors of proliferation of bovine aortic endothelial cells in DMEM medium containing 0.5% (FIG. 24A) or 5% (FIG. 24B) fetal calf serum. […] Therefore, the conjugates are general inhibitors of both large and small vessel endothelial cell proliferation. […]
Proliferation of bovine aortic endothelial cells was also determined for cells grown in the presence of the indicated concentrations of peptide 246 (KRFKQDGGWSHWSPWSS) (SEQ ID NO:19) or peptide 416 (retro-inverso) in RPMI-HITES (reg medium) or corresponding conditioned medium from MDA 435 breast carcinoma cells. […]

[4] = tested on: MDA MB435 breast carcinoma cells; experiment: MDA MB435 human breast carcinoma cell proliferation; format: cell-based; settings: free peptide
Procedure: Human breast carcinoma cells MDA MB435 (American Type Culture Collection) were grown in RPMI 1640 medium containing 10% fetal calf serum. Proliferation was determined as described in FIG. 18 and 44A, B and C.
Human breast carcinoma cells MDA MB435 (American Type Culture Collection) were grown in RPMI 1640 medium containing 10% fetal calf serum. Proliferation was determined in the presence of 0.5% fetal calf serum and bFGF as described in FIG. 19.

Toxicity in nude mice = format: in vivo, mouse; settings: free peptide, up to 10 mg/kg
Source text: as §1
Based on published studies of related peptide conjugates (Braatz J. A., Yashuda Y., Olden K., Yamada K. M., Heifetz A. H. (1993): Functional peptide-polyurethane conjugates with extended circulatory half lives. Bioconjugate Chem 4:262-267), the conjugates are predicted have circulating half lives on the order of 10 hours. Free peptides usually have circulating half lives of less than 10 minutes, based on published results. The short half lives were due to clearance or stability of the peptides in plasma. Use of nonhydrolyzable amino acid analogs or capping modifications of the peptides decreases sensitivity to degradation.

Solubility = format: physicochemical
AIDS-KS cells [5] = experiment: AIDS-KS cell proliferation; format: cell-based, human
Procedure: AIDS-KS cell strains were cultured as previously described (Nakamura, S. et al. "Kaposi's Sarcoma Cells: Long-Term Culture with Growth Factor From Retrovirus-Infected CD4+T Cells", Science, (1988) 242:426; and Salahuddin, S. Z. et al. "Angiogenic Properties of kaposi's Sarcoma-Derived Cells After Long-Term Culture In Vitro", Science (1988) 242:430). TSP was purified from thrombin-stimulated human platelets as described. TSP peptides and peptide conjugates were synthesized corresponding to sequences of human TSP as described.
For the cell proliferation assays 1×10^3 cells/well were seeded in triplicate in 24 well flat bottom plates (Falcon, Franklin Lakes, N.J.) that contained the required dilutions of TSP, TSP peptide-FICOLL conjugates, and growth factors: 1) Oncostatin M (OSM) (PreProtech) at 25 ng/ml, or 2) activated lymphocyte conditioned medium (AL-CM) at 20%. After 7 days, the cells were trypsinized and counted using a Coulter Zm Cell Counter (Coulter Corporation). The values are triplicate determinations and the bars indicate standard deviations, n=3.

AIDS-KS cells [6] = experiment: AIDS-KS cell chemotaxis, modified Boyden chamber; format: cell-based, human
Procedure: Directed migration (chemotaxis) and general migration (chemokinesis) of AIDS-KS cells in culture was measured by the modified Boyden chamber assay using fibronectin coated […] Nucleopore filters as previously described. In brief, the AIDS-KS cells, were trypsinized then resuspended in RPMI 1640 containing […] (GIBCO-BRL) and 20% activated lymphocyte conditioned medium. The trypsinized cells were allowed to recover in suspension for 2 hours, then the cells were recovered by centrifugation and resuspended in RPMI 1640 containing 0.1% BS at 5×10^5 cells/ml prior to adding 100 μl to the upper wells in the chemotaxis chamber. Migration to BSA (0.1%) and OSM was performed in the presence of the indicated concentrations of TSP, and TSP peptide-FICOLL conjugates. After 3 hours incubation at 37° C. filters were stained with Diff Quick (Merz-Dade, Dudingen, Switzerland), and the migrated cells in ten high-power fields were counted. The values are triplicate determinations and the bars indicate standard deviations, n=3.

[7] = polysucrose/FICOLL conjugate, intravenous

## 364f: KRFKQDGGWSHWSPWSSC conjugated to FICOLL, several preparations (also: conjugated to FICOLL) [Peptide 364f]
MDA MB435 tumor; [7]
  tumor growth: delays tumor growth
AIDS-KS lesion
  AIDS-KS lesion formation: strongly inhibited AIDS-KS lesion formation

## N=C(N)NCCC[C@H](NC(=O)[C@@H](N)CCCCN)C(=O)N[C@@H](Cc1ccccc1)C(=O)N[C@@H](CCCCN)C(=O)N[C@@H](CCC(N)=O)C(=O)N[C@@H](CC(=O)O)C(=O)NCC(=O)NCC(=O)N[C@@H](Cc1c[nH]c2ccccc12)C(=O)N[C@@H](CO)C(=O)N[C@@H](Cc1c[nH]cn1)C(=O)N[C@@H](Cc1c[nH]c2ccccc12)C(=O)N[C@@H](CO)C(=O)N1CCC[C@H]1C(=O)N[C@@H](Cc1c[nH]c2ccccc12)C(=O)N[C@@H](CO)C(=O)N[C@@H](CO)C(=O)O [Peptide 246, KRFKQDGGWSHWSPWSS] (H-KRFKQDGGWSHWSPWSS-OH)
[1]
  IC50: 40000 nM

## CC(=O)N[C@H](CS)C(=O)N[C@H](CO)C(=O)N[C@H](CO)C(=O)N[C@H](Cc1c[nH]c2ccccc12)C(=O)N1CCC[C@@H]1C(=O)N[C@H](CO)C(=O)N[C@H](Cc1c[nH]c2ccccc12)C(=O)N[C@H](Cc1c[nH]cn1)C(=O)N[C@H](CO)C(=O)N[C@H](Cc1c[nH]c2ccccc12)C(=O)NCC(=O)NCC(=O)N[C@H](CC(=O)O)C(=O)N[C@H](CCC(N)=O)C(=O)N[C@H](CCCCN)C(=O)N[C@H](Cc1ccccc1)C(=O)N[C@H](CCCNC(=N)N)C(=O)N[C@H](CCCCN)C(N)=O [Peptide 416, ri-amKRFKQDGGWSHWSPWSSCac] (Ac-[dC][dS][dS][dW][dP][dS][dW][dH][dS][dW]GG[dD][dQ][dK][dF][dR][dK]-NH2)
[2]; FICOLL conjugate
  inhibition of thrombospondin binding to heparin, in words: active
[2]; free peptide
  inhibition of thrombospondin binding to heparin, in words: retains heparin-binding activity
[2]; free peptide, listed as all D-acCSSWPSWHSWGGDQKFRKam
  inhibition of thrombospondin binding to heparin, in words: retained full activity
[2]; free retro-inverso peptide
  activity relative to the native sequence: approximately three-fold less
[2]; retro-inverso peptides, free, read-out: IC50 Inhibitory Activity, Free Peptide
  IC50: 400 nM
[3]
  inhibition of aortic endothelial cell proliferation, in words: significantly inhibit proliferation
[4]
  inhibition of MDA MB435 proliferation, in words: substantial inhibition of MDA cell proliferation
MDA MB435 tumor; 0.2 to 6 mg/kg, treatment with 6 mg/kg
  tumor growth, dose response: maximal inhibition of tumor growth
MDA MB435 tumor; free peptide, daily intravenous, 2 mg/kg
  tumor growth: significantly inhibited tumor growth
MDA MB435 tumor; [7]
  tumor growth: No significant inhibition of tumor growth
Toxicity in nude mice
  toxicity: without overt toxicity

## CC(=O)N[C@@H](CCCCN)C(=O)N[C@@H](CCCNC(=N)N)C(=O)N[C@@H](C)C(=O)N[C@@H](CCCCN)C(=O)N[C@@H](C)C(=O)N[C@@H](C)C(=O)NCC(=O)NCC(=O)N[C@@H](Cc1c[nH]c2ccccc12)C(=O)N[C@@H](CO)C(=O)N[C@@H](Cc1c[nH]cn1)C(=O)N[C@@H](Cc1c[nH]c2ccccc12)C(=O)N[C@@H](C)C(=O)N[C@@H](CO)C(=O)N[C@@H](CS)C(N)=O [acKRAKAAGGWSHWASCam] (Ac-KRAKAAGGWSHWASC-NH2)
[2]; free peptide
  inhibition of thrombospondin binding to heparin, in words: good activity
Solubility
  solubility characteristics: good activity and solubility characteristics

## TSP: thrombospondin purified from thrombin-stimulated human platelets
AIDS-KS cells [5]
  inhibition of AIDS-KS cell proliferation, in words: concentration dependent decrease in cell number
AIDS-KS cells [6]; added in the lower well
  stimulation of AIDS-KS cell motility: dose-dependent stimulation of AIDS-KS cell motility
AIDS-KS cells [6]; added with OSM, read-out: IC50 inhibition of OSM stimulated migration
  IC50: < 110 nM
